The test system of experiment [1] is Candida albicans (4 strains). Kind of experiment: Antifungal activity in vitro on clinical strains of Candida: albicans (4 strains). In kind it is cell-based. The conditions noted are these: for activity against strains of Candida albicans (in words): clinical strains.
For experiment [2], the system named is Candida lusitaniae (1 strain). Briefly: Antifungal activity in vitro on clinical strains of Candida: lusitaniae (1 strain). The format is cell-based. Particulars: for activity against Candida lusitaniae (in words): clinical strain; for CI80 on clinical strains of Candida: strain CL980001 (Candida lusitaniae).
Experiment [3] deals with Candida parapsilosis (2 strains). Kind of experiment: Antifungal activity in vitro on clinical strains of Candida: parapsilosis (2 strains). In kind it is cell-based.
The subject of experiment [4] is Aspergillus fumigatus (strain n°AF 980003). Briefly: Antifungal activity on a clinical strain of Aspergillus fumigatus (Alamar Blue microplate test). The format is cell-based. The conditions noted are these: for MIC / CMI or CI80 Aspergillus fumigatus (AF980003): strain AF980003; for MIC: read-out: CMI or CI80 Aspergillus fumigatus (AF980003). (Resazurin is reduced to fluorescent resorufin, in cell work by metabolically active cells.)

The test system of experiment [5] is Candida krusei (4 strains). Kind of experiment: Antifungal activity in vitro on clinical strains of Candida: krusei (4 strains). In kind it is cell-based.
The test system of experiment [6] is promastigote stage of Leishmania mexicana. Kind of experiment: Antiparasitic activity on the promastigote form of Leishmania (MTT). The format is cell-based. The conditions noted are these: for IC50: read-out: CI50 Leishmania mexicana Promastigotes.
Experiment [7] concerns Candida albicans (strain n° CA980001). Briefly: Antifungal activity on a clinical strain of Candida albicans (MTT colorimetric microplate test). In kind it is cell-based. Particulars: for CMI or CI80 Candida albicans (CA980001) / MIC: strain CA980001; for MIC: read-out: CMI or CI80 Candida albicans (CA980001); for activity of inhibition of Candida albicans (in words): summary of Tables 27 to 40. On the technique in general: Tetrazolium dyes change colour on reduction, which living cells bring about.

Experiment [8] relates to Candida albicans (CA98001). Briefly: Antifungal activity in vivo on a model of disseminated candidiasis. Details: species or system female Swiss mice. The conditions noted are these: mouse, in vivo.
Where [9] appears, read: strain CA980001 (Candida albicans).
Setting [10] is: strain CA980002 (Candida albicans).
Setting [11] is: strain CA980003 (Candida albicans).
Where [12] appears, read: strain CA980005 (Candida albicans).
Setting [13] is: strain CP980001 (Candida parapsilosis).
The mark [14] stands for this setting: strain CP980002 (Candida parapsilosis).
The mark [15] stands for this setting: strain CK980001 (Candida krusei).
The mark [16] stands for this setting: strain CK980002 (Candida krusei).
Where [17] appears, read: strain CK980003 (Candida krusei).
[18] abbreviates: strain CK980004 (Candida krusei).

Values after ≈ are worked out from the molar mass of the structure shown. Values joined by “and” are separate entries in the source; they are usually repeats but may differ in a detail not shown here. Equal values may be shown once. “Also recorded” adds a separate entry of the source. Read-outs that look alike come from different tables or passages of the source.

Turning to `OC(Cn1ccnc1)(Cn1ccc2ccccc21)c1ccc(Br)cc1` (centres unmarked) [compound 73], the “activity against strains of Candida albicans (in words)” value in experiment [1] was “active; also recorded: very active”. Further, the “CI80 on clinical strains of Candida” value turned out to be 0.06 ± 0.002 µM in experiment [1] (setting [9]); 0.63 ± 0.016 µM in experiment [1] (setting [10]); 0.55 ± 0.0963 µM in experiment [1] (setting [11]); 0.53 ± 0.022 µM in experiment [1] (setting [12]); 0.63 ± 0.01 µM in experiment [2]; 0.67 ± 0.0 µM in experiment [3] (setting [13]). For the same compound, the “CI80 on clinical strains of Candida” value is 4.65 ± 0.11 µM in experiment [3] (setting [14]); 0.65 ± 0.01 µM in experiment [5] (setting [15]); 12.81 ± 2.22 µM in experiment [5] (setting [16]); 92.27 ± 3.90 µM in experiment [5] (setting [17]); above 100 µM in experiment [5] (setting [18]). For the same compound, the “activity against Candida lusitaniae (in words)” value in experiment [2] is reported as “very active”. In addition, in experiment [3] (clinical strains), the “activity against Candida parapsilosis (in words)” value is reported as “very active”. The MIC in experiment [4] is above 100 µM; in experiment [7], 0.06 µM (≈ 0.0238 µg/mL). In addition, the “activity against Candida krusei (in words)” value in experiment [5] (clinical strains, b748: one strain) was “active; also recorded: very active”. In addition, the “CI50 Leishmania mexicana Promastigotes” value in experiment [6] (promastigotes) turned out to be 2.7 ± 0.08 µg/mL (≈ 6.81 µM). Also, the IC50 in experiment [6] (promastigotes) was found to be 6.65 ± 0.22 µM. For the same compound, the “CMI or CI80 Candida albicans (CA980001)” value in experiment [7] is 0.02 µg/mL. Further, in experiment [7], the “activity of inhibition of Candida albicans (in words)” value was “most active”.

As to `OC(Cn1ccnc1)(Cn1ccc2ccccc21)c1ccc(F)cc1` (centres unmarked) [compound 76], the “activity against strains of Candida albicans (in words)” value in experiment [1] is “very active”. In addition, the “CI80 on clinical strains of Candida” value in experiment [1] (setting [9]) stood at 0.067 ± 0.005 µM; in experiment [1] (setting [10]), 0.61 ± 0.022 µM; in experiment [1] (setting [11]), 0.25 ± 0.11 µM; in experiment [1] (setting [12]), 0.44 ± 0.044 µM; in experiment [2], 0.69 ± 0.08 µM; in experiment [3] (setting [13]), 4.10 ± 0.35 µM. Moreover, the “CI80 on clinical strains of Candida” value in experiment [3] (setting [14]) is 6.32 ± 0.14 µM; in experiment [5] (setting [15]) it was 65.38 ± 3.71 µM; in experiment [5] (setting [16]), 38.05 ± 7.24 µM; in experiment [5] (setting [17]) it was 85.27 ± 0.324 µM; in experiment [5] (setting [18]) it was above 100 µM. In addition, in experiment [2], the “activity against Candida lusitaniae (in words)” value is reported as “very active”. The “CMI or CI80 Aspergillus fumigatus (AF980003)” value in experiment [4] is 88 ± 2 μM and 30 ± 0.7 μg/mL. Further, the “CI50 Leishmania mexicana Promastigotes” value in experiment [6] (promastigotes) is 3 ± 0.03 µg/mL (≈ 8.95 µM). Further, the IC50 in experiment [6] (promastigotes) is 9.2 ± 0.09 µM. Further, the “CMI or CI80 Candida albicans (CA980001)” value in experiment [7] stood at 0.03 µg/mL. For the same compound, the MIC in experiment [7] came out at 0.08 µM (≈ 0.0268 µg/mL). In experiment [7], the “activity of inhibition of Candida albicans (in words)” value is on record as “most active”.

On to `OC(Cn1cncn1)(Cn1cncn1)c1ccc(F)cc1F` [Fluconazole, fluconazole, reference compound], for which the “survival at D10” value in experiment [8] came out at 100%. Also, the MIC in experiment [7] (Candida albicans, 24 h at 37° C., MTT) came to 0.07 µM (≈ 0.0214 µg/mL). Moreover, in experiment [7] (24 h at 37° C., MTT), the “CMI or CI80 Candida albicans (CA980001)” value was found to be 0.02 µg/mL.

`CC(c1cn(Cc2ccc(F)cc2)c2ccccc12)n1ccnc1.O=C(O)/C=C/C(=O)O` (centres unmarked) [67f]: the “CMI or CI80 Aspergillus fumigatus (AF980003)” value in experiment [4] was 64 ± 2 μM and 28 ± 1 μg/mL. Further, the “activity against Aspergillus fumigatus (in words)” value in experiment [4] (summary of Tables 27 to 40) was “strong activity”. For the same compound, in experiment [6] (promastigotes), the “CI50 Leishmania mexicana Promastigotes” value was determined as 1.57 ± 1.2 µg/mL and the IC50 was 3.6 ± 1.2 µM. The “CMI or CI80 Candida albicans (CA980001)” value in experiment [7] is 57 ± 2 μM and 25 ± 1 μg/mL.

On to `Clc1ccc(Cn2cc(CCCn3ccnc3)c3ccccc32)cc1` [compound 60], for which, in experiment [4], the MIC is given as above 100 µM. Moreover, in experiment [6], the “CI50 Leishmania mexicana Promastigotes” value was 26.1 µg/mL (≈ 74.6 µM) and the IC50 amounted to 74.7 µM. In addition, the MIC in experiment [7] is above 100 µM.

Regarding `Fc1ccc(Cn2cc(Cn3ccnc3)c3cc(Br)ccc32)cc1` [compound 12], the MIC in experiment [4] (Alamar Blue) was above 100 µM. In experiment [6], the “CI50 Leishmania mexicana Promastigotes” value came out at 7.9 ± 0.9 µg/mL (≈ 20.6 µM) and the IC50 was determined as 20.6 ± 2.4 µM. Further, the MIC in experiment [7] (24 h at 37° C., MTT) is recorded as above 100 µM.

The values are drawn from US20040067998A1, “Antifungal and/or antiparasitic pharmaceutical composition and novel indole derivatives as active principle of such a composition” (priority 2003, published 2004).
